Test results reported in patent publication US20210023012A1, “Solid Pharmaceutical Compositions for Treating HCV” (AbbVie Inc., priority 2019, published 2021).

Experiments:
[1] = Steady-state pharmacokinetics of film-coated granules in pediatric subjects by age group; type: in vivo, human; set-up: Ctrough: unit not given here; conditions: for Ctrough / AUC: Week 2; for AUC: human, oral, film-coated granules
Experimental: The study was designed to assess the steady state AUC and to assess the pharmacokinetics (PK) of Compound 1/Compound 2 in pediatric subjects by age group. […] Subjects were enrolled in this study and dosed with film-coated granules containing Compound 1/Compound 2 as generally described above in Example 3. [table] An intensive PK sample draw was done at the Week 2 visit with blood samples taken immediately prior to dose (0 hour) and at 2, 4, 6, and 12 hours post dose.

[2] = Single-dose crossover: bioavailability of Compound 1/Compound 2 mini-tablets; type: in vivo, human; conditions: for Cmax / AUC(0-inf) / AUC(0-t) / half-life / Tmax: human, in vivo, oral, N = 14; for Cmax / AUC(0-inf) / AUC(0-t): geometric mean; for half-life: harmonic mean; for Tmax: median
Experimental: In comparison, when administered with food, the mini-tablets provided an AUC that was only 5% lower than that provided by the regular tablets. […] All of the reference AUCs of the regular tablets were measured under fasting conditions.
14 subjects were enrolled in this study and dosed with co-formulated Compound 1/Compound 2 in mini-tablets. One subject spilled 4 mini-tablets (out of 100-150 total mini-tablets) during dosing of Period 2 (Regimen G) and was not excluded from the analysis. The mini-tablets were prepared according to a process similar to that described in Example 2.

clinical = conditions: human, in vivo
Text: Target AUC was derived from the geometric mean of AUC values from a population of adult subjects who received Compound 1 and Compound 2.

[3] = Mass balance studies with [14C] compound, single dose; type: in vivo, human; conditions: single dose of [14C] compound
[4] = Phase 1 single-dose crossover: bioavailability and food effect of Compound 1/Compound 2 bilayer tablets; type: in vivo, human; conditions: film-coated vs uncoated bilayer tablets, additional studies
[5] = Binding to human plasma proteins; type: in vitro ADME; conditions: read-out: % Bound to human plasma proteins (converted)
[6] = Pharmacokinetic properties in healthy subjects; type: in vivo, human; conditions: for Tmax: oral, median, single doses
Blood-to-plasma ratio = type: in vitro ADME; conditions: human, whole blood/plasma
[7] = Phase 1 single-dose crossover: bioavailability and food effect of Compound 1/Compound 2 bilayer tablets; type: in vivo, human; conditions: for Cmax / AUC(0-inf) / AUC(0-t) / half-life / Tmax: human, in vivo, oral, N = 23; for Cmax / AUC(0-inf) / AUC(0-t): geometric mean; for half-life: harmonic mean; for Tmax: median
Experimental: Phase 1, single-dose, four-period, randomized, complete crossover clinical trials were conducted to determine the bioavailability and food effect of the Compound 1/Compound 2 film-coated bilayer tablets. Tablets described in Table 1b were used in Regimens A, B and C, and separate tablets containing either Compound 1 or Compound 2 were used in Regimen D. Subjects took a single dose of Compound 1/Compound 2 on Day 1 of each Period. There was a washout of 4 days between doses. • i. Regimens A and D: study drugs were taken under fasting conditions. • ii. Regimen B: study drugs were taken approximately 30 minutes after start of moderate-fat breakfast (about 30% calories from fat). • iii. Regimen C: study drugs were taken approx. 30 minutes after start of high-fat breakfast (50% calories from fat). For Regimens A, B and C, the single dose consisted of three tablets of Table 1b, each tablet contains 100 mg/40 mg Compound 1/Compound 2. For Regimen D, the single dose contained three tablets of Compound 1, each of which contained 100 mg Compound 1, as well as three tablets of Compound 2, each of which contained 40 mg Compound 2. [table] [table]

[8] = Predicted PK exposures (Pop-PK AUC) in pediatric subjects; type: in vivo; set-up: concentration or dose not given beside the values; conditions: human, oral
Text: The predicted PK exposures (“Pop-PK AUC”) of Compound 1/Compound 2 based on all PK information collected in the study (including data from other study weeks) is shown in Table 13 and Table 13a.

[9] = Regimen F: single dose mini-tablets 200 mg/120 mg, fasting
[10] = Regimen G: single dose mini-tablets 200 mg/120 mg, non-fasting
[11] = Regimen J: two Compound 1 tablets (100 mg each) and three Compound 2 tablets (40 mg each), fasting
[12] = mean systemic exposure with moderate to high fat meals
[13] = Regimen A: single dose bilayer tablets 300 mg/120 mg, fasting
[14] = Regimen B: single dose bilayer tablets 300 mg/120 mg with moderate fat breakfast
[15] = Regimen C: single dose bilayer tablets 300 mg/120 mg with high fat breakfast
[16] = Regimen D: single dose separate Compound 1 tablets (3 × 100 mg) and Compound 2 tablets (3 × 40 mg), fasting

COC(=O)N[C@H](C(=O)N1CCC[C@H]1c1nc2cc([C@H]3CC[C@H](c4cc5nc([C@@H]6CCCN6C(=O)[C@@H](NC(=O)OC)[C@@H](C)OC)[nH]c5cc4F)N3c3cc(F)c(N4CCC(c5ccc(F)cc5)CC4)c(F)c3)c(F)cc2[nH]1)[C@@H](C)OC [Compound 2]
Ctrough ([1]; 3 to <6 years old, post-adjustment 150 mg/60 mg, N 10): 17.5 (139) | Ctrough ([1]; 6 to <9 years old, post-adjustment 200 mg/80 mg, N 9): 20.0 (119) | Ctrough ([1]; 9 to <12 years old, post-adjustment 250 mg/100 mg, N 10): 40.8 (194) | AUC ([1]; blood, 3 to <6 years old, pre-adjustment, 3 sachets, 120 mg/45 mg, read-out: AUC, Geometric Mean): 871 ng·h/mL | AUC ([1]; blood, 6 to <9 years old, pre-adjustment, 4 sachets, 160 mg/60 mg, read-out: AUC, Geometric Mean): 987 ng·h/mL | AUC ([1]; blood, 9 to <12 years old, pre-adjustment, 5 sachets, 200 mg/75 mg Compound 1/Compound 2, read-out: AUC, Geometric Mean): 1250 ng·h/mL | AUC ([1]; in vivo, 3 to <6 years old, post-adjustment, 3 sachets, 150 mg/60 mg, N 10, read-out: AUC): 1660 ng·h/mL | AUC ([1]; in vivo, 6 to <9 years old, post-adjustment, 4 sachets, 200 mg/80 mg, N 9, read-out: AUC): 1520 ng·h/mL | AUC ([1]; in vivo, 9 to <12 years old, post-adjustment, 5 sachets, 250 mg/100 mg Compound 1/Compound 2, N 10, read-out: AUC): 2300 ng·h/mL | Exposures in children aged 3 to <12 years vs adolescents 12 to <18 years and adults from Phase 2/3 studies ([1]; recommended doses according to body weight): comparable | Effect of administration with food on bioavailability ([2]; co-formulated mini-tablets): significantly increased | Cmax ([2]; Regimen F: single dose mini-tablets 200 mg/120 mg Compound 1/Compound 2, fasting): 96 ng/mL | AUC(0-inf) [2, 9]: 913 ng·h/mL | AUC(0-t) [2, 9]: 863 ng·h/mL | half-life [2, 9]: 13.4 h | Tmax [2, 9]: 4 h | Cmax ([2]; Regimen G: single dose mini-tablets 200 mg/120 mg Compound 1/Compound 2, non-fasting): 177 ng/mL | AUC(0-inf) [2, 10]: 1320 ng·h/mL | AUC(0-t) [2, 10]: 1250 ng·h/mL | half-life [2, 10]: 13.2 h | Tmax [2, 10]: 3 h | Cmax ([2]; Regimen J: single dose two Compound 1 tablets (100 mg each) and three Compound 2 tablets (40 mg each), fasting): 139 ng/mL | AUC(0-inf) [2, 11]: 1260 ng·h/mL | AUC(0-t) [2, 11]: 1190 ng·h/mL | half-life [2, 11]: 13.3 h | Tmax [2, 11]: 4.5 h | AUC of mini-tablets higher than that of regular tablets (fasting) ([2]; mini-tablets with food, 120 mg Compound 2): 6% | AUC of mini-tablets lower than that of regular tablets (fasting) ([2]; mini-tablets without food, 200 mg Compound 1 / 120 mg Compound 2, same solid dispersion formulation): 28% | AUC (clinical): 1430 ng·h/mL | % of dose excreted in faeces [3]: 96.6% | % of dose excreted in urine [3]: 0% | Impact of film-coating on bioavailability [4]: minimal impact | fraction unbound [5]: < 0.001 | Metabolism ([6]; Biotransformation): none | Major route of elimination ([6]; human, in vivo): Biliary | Tmax ([6]; human, in vivo, healthy subjects, read-out: Tmax of granules): 3 to 5 h | Tmax ([6]; human, in vivo, healthy subjects, read-out: Tmax of tablets): 5 h | half-life ([6]; human, in vivo, healthy subjects, read-out: t1/2 at steady-state): 23 to 29 h | Effect of meal (relative to fasting) on adult tablets, ↑ [6, 12]: ↑ 40-53% | Effect of meal (relative to fasting) on granules, ↑ [6, 12]: ↑ 56-115% | blood plasma ratio (Blood-to-plasma ratio): 0.62 | Effect of administration with food on bioavailability ([7]; bilayer tablets): significantly improved | Cmax ([7]; Regimen A: single dose bilayer tablets 300 mg/120 mg (3 × 100 mg/40 mg), fasting): 116 ng/mL | AUC(0-inf) [7, 13]: 960 ng·h/mL | AUC(0-t) [7, 13]: 910 ng·h/mL | half-life [7, 13]: 13.3 h | Tmax [7, 13]: 4 h | AUC(0-inf) [7, 14]: 1350 ng·h/mL | AUC(0-t) [7, 14]: 1280 ng·h/mL | Cmax [7, 14]: 221 ng/mL | half-life [7, 14]: 13 h | Tmax [7, 14]: 5 h | AUC(0-inf) [7, 15]: 1460 ng·h/mL | AUC(0-t) [7, 15]: 1390 ng·h/mL | Cmax [7, 15]: 237 ng/mL | half-life [7, 15]: 13.5 h | Tmax [7, 15]: 5 h | AUC(0-inf) [7, 16]: 1490 ng·h/mL | AUC(0-t) [7, 16]: 1420 ng·h/mL | Cmax [7, 16]: 175 ng/mL | half-life [7, 16]: 12.5 h | Tmax [7, 16]: 4 h | AUC ([8]; blood, Table 13, 3 to <6 years old, N 10, predicted): 1430 ng·h/mL | AUC ([8]; blood, Table 13, 6 to <9 years old, N 9, predicted): 1460 ng·h/mL | AUC ([8]; blood, Table 13, 9 to <12 years old, N 10, predicted from all PK information collected in the study): 1440 ng·h/mL | AUC ([8]; in vivo, Table 13a, 3 to <6 years old, N 10, predicted): 1760 ng·h/mL | AUC ([8]; in vivo, Table 13a, 6 to <9 years old, N 9, predicted): 1730 ng·h/mL | AUC ([8]; in vivo, Table 13a, 9 to <12 years old, N 10, predicted): 2360 ng·h/mL
